Consider 33 molecules from PMC10793102 (Acta Pharmaceutica Sinica. B, 2023).

One assay deals with FADD−/− Jurkat. Briefly: Cell viability assay, protection from necroptosis in FADD−/− Jurkat cells. It is filed as cell-based. The conditions noted are these: Homo sapiens, 16 h.
Another assay has as its system L929. Briefly: Cell viability assay, protection from necroptosis in L929 cells. It is filed as cell-based, mouse. The following applies: for EC50: Mus musculus, L929, 16 h.
[1] abbreviates: read-out: EC50 FADD−/− Jurkat T + S.
The mark [2] stands for this setting: read-out: EC50 FADD−/− Jurkat TNFα.

Like-named read-outs stand apart in the source and are kept apart here.

For the molecule `COc1ccc2c(cnn2-c2ccc(CNC(=O)c3cnn(C)c3Cc3ccccc3)cc2)c1` [compound 36], the EC50 came to 128 nM with FADD−/− Jurkat (setting [1]) and 18 nM in the assay on FADD−/− Jurkat (setting [2]).
Turning to `CNC(=O)c1ccc2c(c1)ncn2-c1ccc(CNC(=O)c2nnn(Cc3ccccc3)n2)cc1` [compound 25], the EC50 was 150 nM with FADD−/− Jurkat (setting [1]) and 24 nM with FADD−/− Jurkat (setting [2]).
On to `Cn1ncc(C(=O)NCc2ccc(-n3cnc4c(N)nccc43)cc2)c1Cc1ccccc1` [compound 40], for which the EC50 with FADD−/− Jurkat (setting [1]) came to 2.3 nM; in the assay on FADD−/− Jurkat (setting [2]), 0.3 nM; in the assay on L929 (read-out: EC50 L929 T + S), 6.3 nM; with L929 (read-out: EC50 L929 TNFα), 1.2 nM.
`Nc1ncnc2c1ncn2-c1ccc(CN2CCc3cn(Cc4ccccc4)nc3C2=O)cc1` [compound 61]: the figures for the EC50 with FADD−/− Jurkat (setting [1]) and with FADD−/− Jurkat (setting [2]) were 0.4 nM and 0.3 nM, respectively.
For the molecule `CNC(=O)c1ccc2c(c1)ncn2-c1ccc(CNC(=O)c2noc(Cc3ccccc3)n2)cc1` [compound 16], the EC50 in the assay on FADD−/− Jurkat (setting [1]) is 176 nM; in the assay on FADD−/− Jurkat (setting [2]) it was 24 nM; in the assay on L929 (read-out: EC50 L929 TNFα) it was 962 nM.
Turning to `CN(C)CCNC(=O)c1ccc2c(c1)ncn2-c1ccc(CNC(=O)c2cnn(C)c2Cc2ccccc2)cc1` [compound 30], the EC50 is 368 nM in the assay with FADD−/− Jurkat (setting [1]), 53 nM in the assay on FADD−/− Jurkat (setting [2]), greater than 10000 nM in the assay on L929 (read-out: EC50 L929 T + S) and greater than 10000 nM in the assay with L929 (read-out: EC50 L929 TNFα).
As to `C[C@@H](NC(=O)c1cnn(C)c1Cc1ccccc1)c1ccc(-n2cnc3c(N)ncnc32)cc1` [compound 55], the EC50 in the assay with FADD−/− Jurkat (setting [1]) stood at 132 nM; in the assay with FADD−/− Jurkat (setting [2]), 36 nM; in the assay on L929 (read-out: EC50 L929 T + S) it was 219 nM; with L929 (read-out: EC50 L929 TNFα), 52 nM.
Take `CNC(=O)c1ccc2c(c1)ncn2-c1ccc(CNC(=O)c2nnc(Cc3ccccc3)o2)cc1` [compound 17]: the EC50 worked out at 1520 nM with FADD−/− Jurkat (setting [1]) and 185 nM in the assay with FADD−/− Jurkat (setting [2]).
In the case of `Cn1nc(C(=O)NCc2ccc(-n3ccc4c(N)nccc43)cc2)cc1Cc1ccccc1` [compound 46], the EC50 in the assay with FADD−/− Jurkat (setting [1]) was greater than 10000 nM; with FADD−/− Jurkat (setting [2]) it was 361 nM.
For the molecule `Cn1ncc(C(=O)NCc2ccc(-c3ncnc4[nH]ccc34)cc2)c1Cc1ccccc1` [compound 38], the EC50 with FADD−/− Jurkat (setting [1]) is 747 nM; with FADD−/− Jurkat (setting [2]), 152 nM; in the assay with L929 (read-out: EC50 L929 T + S), greater than 10000 nM; in the assay with L929 (read-out: EC50 L929 TNFα) it was greater than 10000 nM.
Take `COc1ccc2c(c1)ncn2-c1ccc(CNC(=O)c2cnn(C)c2Cc2ccccc2)cc1` [compound 34]: the EC50 with FADD−/− Jurkat (setting [1]) was determined as 0.1 nM; in the assay on FADD−/− Jurkat (setting [2]) it was 0.002 nM; in the assay with L929 (read-out: EC50 L929 T + S), 0.08 nM; in the assay with L929 (read-out: EC50 L929 TNFα), 0.005 nM.
`CNC(=O)c1ccc2c(c1)ncn2-c1ccc(CNC(=O)c2ncc(Cc3ccccc3)o2)cc1` [compound 18]: the EC50 with FADD−/− Jurkat (setting [1]) came out at 380 nM; in the assay on FADD−/− Jurkat (setting [2]) it was 70 nM; with L929 (read-out: EC50 L929 T + S), 3980 nM; in the assay with L929 (read-out: EC50 L929 TNFα) it was 831 nM.
On to `COc1cc2ncnc(-c3ccc(CNC(=O)c4cnn(C)c4Cc4ccccc4)cc3)c2cc1OC` [compound 37], for which the EC50 in the assay with FADD−/− Jurkat (setting [1]) was 1500 nM; in the assay on FADD−/− Jurkat (setting [2]), 233 nM.
`CCn1nc(C(=O)NCc2ccc(-n3cnc4cc(C(=O)NC)ccc43)cc2)cc1Cc1ccccc1` [compound 22]: the EC50 with FADD−/− Jurkat (setting [1]) was 43 nM; with FADD−/− Jurkat (setting [2]), 5.9 nM.
As to `CCn1ncc(C(=O)NCc2ccc(-n3cnc4c(N)ncnc43)cc2)c1Cc1ccccc1` [compound 47], the EC50 came out at 35 nM in the assay on FADD−/− Jurkat (setting [1]), 1.2 nM in the assay with FADD−/− Jurkat (setting [2]), 74 nM in the assay with L929 (read-out: EC50 L929 T + S) and 22 nM with L929 (read-out: EC50 L929 TNFα).
In the case of `CCN1CCN(Cc2ccc(NC(=O)c3ccc(-n4cnc5cc(C(=O)NC)ccc54)cc3)cc2C(F)(F)F)CC1` [compound 13], the “protective effects against cell death of L929 cells induced by TNFα” value with L929 (TNFα 40 ng/mL, 15 h, Fig. 2A) is listed as “relatively weaker”.
For `Cn1ncc(C(=O)NCc2ccc(-n3cnc4cc(C(=O)NCCN5CCOCC5)ccc43)cc2)c1Cc1ccccc1` [compound 32], the EC50 in the assay with FADD−/− Jurkat (setting [1]) turned out to be 3 nM; in the assay on FADD−/− Jurkat (setting [2]), 0.5 nM; in the assay on L929 (read-out: EC50 L929 T + S), 190 nM; in the assay on L929 (read-out: EC50 L929 TNFα), 32 nM.
`CCCn1nc(C(=O)NCc2ccc(-n3cnc4cc(C(=O)NC)ccc43)cc2)cc1Cc1ccccc1` [compound 23]: the EC50 with FADD−/− Jurkat (setting [1]) is 738 nM; with FADD−/− Jurkat (setting [2]) it was 109 nM.
Consider `Cn1ncc(C(=O)NCc2ccc(-n3ncc4c(N)ncnc43)cc2)c1Cc1ccccc1` [compound 41], for which the EC50 in the assay with FADD−/− Jurkat (setting [1]) was 6.9 nM; in the assay with FADD−/− Jurkat (setting [2]) it was 0.4 nM; in the assay on L929 (read-out: EC50 L929 T + S), 23 nM; in the assay with L929 (read-out: EC50 L929 TNFα), 9.9 nM.
On the same counts, the results for `Nc1ncnc2c1ncn2-c1ccc(CNC(=O)c2ccc(F)n2Cc2ccccc2)cc1` [compound 51] are 1.6 nM, 0.1 nM, 74 nM and 0.9 nM.
With `CNC(=O)c1ccc2c(c1)ncn2-c1ccc(CNC(=O)c2cn(Cc3ccccc3)nn2)cc1` [compound 24], the EC50 with FADD−/− Jurkat (setting [1]) amounted to 1590 nM; in the assay on FADD−/− Jurkat (setting [2]), 233 nM.
For the molecule `Cn1nc2c(c1Cc1ccccc1)C(=O)N(Cc1ccc(-n3cnc4c(N)ncnc43)cc1)C2` [compound 60], the EC50 in the assay on FADD−/− Jurkat (setting [1]) came to 2.9 nM; with FADD−/− Jurkat (setting [2]), 0.05 nM; with L929 (read-out: EC50 L929 T + S), 116 nM; in the assay on L929 (read-out: EC50 L929 TNFα), 4.8 nM.
For `Cn1nc2c(c1Cc1ccccc1)C(=O)N(Cc1ccc(-n3cnc4c(N)ncnc43)cc1)CC2` [compound 59], the EC50 in the assay on FADD−/− Jurkat (setting [1]) was 2.3 nM; with FADD−/− Jurkat (setting [2]) it was 0.2 nM; in the assay on L929 (read-out: EC50 L929 T + S), 39 nM; with L929 (read-out: EC50 L929 TNFα), 8.4 nM.
For the molecule `CNC(=O)c1ccc2c(ccn2-c2ccc(CNC(=O)c3cc(Cc4ccccc4)n(C)n3)cc2)c1` [compound 28], the EC50 in the assay on FADD−/− Jurkat (setting [1]), in the assay on FADD−/− Jurkat (setting [2]), with L929 (read-out: EC50 L929 T + S) and in the assay on L929 (read-out: EC50 L929 TNFα) was greater than 10000 nM throughout.
As for `Cn1nc(C(=O)NCc2ccc(-n3ncc4c(N)ncnc43)cc2)cc1Cc1ccccc1` [compound 44], the values for the EC50 with FADD−/− Jurkat (setting [1]) and in the assay with FADD−/− Jurkat (setting [2]) were 451 nM and 71 nM, respectively.
`Cn1nc(C(=O)NCc2ccc(-n3ccc4c(N)ncnc43)cc2)cc1Cc1ccccc1` [compound 45]: the EC50 with FADD−/− Jurkat (setting [1]) was found to be 980 nM; in the assay on FADD−/− Jurkat (setting [2]) it was 137 nM; in the assay with L929 (read-out: EC50 L929 TNFα), 2890 nM.
In the case of `CNC(=O)c1ccc2c(c1)ncn2-c1ccc(CNC(=O)c2n[nH]c(Cc3ccccc3)n2)cc1` [compound 15], in the assay on FADD−/− Jurkat (setting [2]), the EC50 was greater than 10000 nM.
For `Nc1ncnc2c1ncn2-c1ccc(CNC(=O)c2ccc(Cl)n2Cc2ccccc2)cc1` [compound 52], the results for the EC50 with FADD−/− Jurkat (setting [1]) and in the assay with FADD−/− Jurkat (setting [2]) were 80.6 nM and 6.6 nM, respectively.
Consider `CNC(=O)c1ccc2c(c1)ncn2-c1ccc(CNC(=O)c2ccc(F)n2Cc2ccccc2)cc1` [compound 26], for which the EC50 in the assay with FADD−/− Jurkat (setting [1]) was 17 nM; in the assay on FADD−/− Jurkat (setting [2]), 1.7 nM; in the assay with L929 (read-out: EC50 L929 T + S), 34 nM; in the assay on L929 (read-out: EC50 L929 TNFα) it was 6 nM.
For the molecule `CNC(=O)c1ccc2c(cnn2-c2ccc(CNC(=O)c3cc(Cc4ccccc4)n(C)n3)cc2)c1` [compound 29], the EC50 in the assay with FADD−/− Jurkat (setting [1]), in the assay with FADD−/− Jurkat (setting [2]), with L929 (read-out: EC50 L929 T + S) and in the assay with L929 (read-out: EC50 L929 TNFα) was greater than 10000 nM throughout.
Regarding `CN1CCN(CCNC(=O)c2ccc3c(c2)ncn3-c2ccc(CNC(=O)c3cnn(C)c3Cc3ccccc3)cc2)CC1` [compound 31], the EC50 in the assay on FADD−/− Jurkat (setting [1]) is 0.6 nM; with FADD−/− Jurkat (setting [2]) it was 0.01 nM; in the assay on L929 (read-out: EC50 L929 T + S), greater than 10000 nM; in the assay on L929 (read-out: EC50 L929 TNFα), 5630 nM.
On the same counts, the results for `COc1cc2ncn(-c3ccc(CNC(=O)c4cnn(C)c4Cc4ccccc4)cc3)c2cc1OC` [compound 33] are 0.1 nM, 0.02 nM, 0.4 nM and 0.06 nM.
With `N#Cc1ccc(C(=O)NCc2ccc(-n3cnc4c(N)ncnc43)cc2)n1Cc1ccccc1` [compound 53], the figures for the EC50 with FADD−/− Jurkat (setting [1]) and in the assay on FADD−/− Jurkat (setting [2]) were 1860 nM and 214 nM, respectively.
